{"source": "patent US10696655B2", "about": "“Therapeutic compounds and uses thereof” (GENENTECH, INC., priority 2017, dated 2020)"}
{"biological_target": "CBP (Homo sapiens (Human), UniProt Q92793)", "sequence (Q92793 whole entry)": "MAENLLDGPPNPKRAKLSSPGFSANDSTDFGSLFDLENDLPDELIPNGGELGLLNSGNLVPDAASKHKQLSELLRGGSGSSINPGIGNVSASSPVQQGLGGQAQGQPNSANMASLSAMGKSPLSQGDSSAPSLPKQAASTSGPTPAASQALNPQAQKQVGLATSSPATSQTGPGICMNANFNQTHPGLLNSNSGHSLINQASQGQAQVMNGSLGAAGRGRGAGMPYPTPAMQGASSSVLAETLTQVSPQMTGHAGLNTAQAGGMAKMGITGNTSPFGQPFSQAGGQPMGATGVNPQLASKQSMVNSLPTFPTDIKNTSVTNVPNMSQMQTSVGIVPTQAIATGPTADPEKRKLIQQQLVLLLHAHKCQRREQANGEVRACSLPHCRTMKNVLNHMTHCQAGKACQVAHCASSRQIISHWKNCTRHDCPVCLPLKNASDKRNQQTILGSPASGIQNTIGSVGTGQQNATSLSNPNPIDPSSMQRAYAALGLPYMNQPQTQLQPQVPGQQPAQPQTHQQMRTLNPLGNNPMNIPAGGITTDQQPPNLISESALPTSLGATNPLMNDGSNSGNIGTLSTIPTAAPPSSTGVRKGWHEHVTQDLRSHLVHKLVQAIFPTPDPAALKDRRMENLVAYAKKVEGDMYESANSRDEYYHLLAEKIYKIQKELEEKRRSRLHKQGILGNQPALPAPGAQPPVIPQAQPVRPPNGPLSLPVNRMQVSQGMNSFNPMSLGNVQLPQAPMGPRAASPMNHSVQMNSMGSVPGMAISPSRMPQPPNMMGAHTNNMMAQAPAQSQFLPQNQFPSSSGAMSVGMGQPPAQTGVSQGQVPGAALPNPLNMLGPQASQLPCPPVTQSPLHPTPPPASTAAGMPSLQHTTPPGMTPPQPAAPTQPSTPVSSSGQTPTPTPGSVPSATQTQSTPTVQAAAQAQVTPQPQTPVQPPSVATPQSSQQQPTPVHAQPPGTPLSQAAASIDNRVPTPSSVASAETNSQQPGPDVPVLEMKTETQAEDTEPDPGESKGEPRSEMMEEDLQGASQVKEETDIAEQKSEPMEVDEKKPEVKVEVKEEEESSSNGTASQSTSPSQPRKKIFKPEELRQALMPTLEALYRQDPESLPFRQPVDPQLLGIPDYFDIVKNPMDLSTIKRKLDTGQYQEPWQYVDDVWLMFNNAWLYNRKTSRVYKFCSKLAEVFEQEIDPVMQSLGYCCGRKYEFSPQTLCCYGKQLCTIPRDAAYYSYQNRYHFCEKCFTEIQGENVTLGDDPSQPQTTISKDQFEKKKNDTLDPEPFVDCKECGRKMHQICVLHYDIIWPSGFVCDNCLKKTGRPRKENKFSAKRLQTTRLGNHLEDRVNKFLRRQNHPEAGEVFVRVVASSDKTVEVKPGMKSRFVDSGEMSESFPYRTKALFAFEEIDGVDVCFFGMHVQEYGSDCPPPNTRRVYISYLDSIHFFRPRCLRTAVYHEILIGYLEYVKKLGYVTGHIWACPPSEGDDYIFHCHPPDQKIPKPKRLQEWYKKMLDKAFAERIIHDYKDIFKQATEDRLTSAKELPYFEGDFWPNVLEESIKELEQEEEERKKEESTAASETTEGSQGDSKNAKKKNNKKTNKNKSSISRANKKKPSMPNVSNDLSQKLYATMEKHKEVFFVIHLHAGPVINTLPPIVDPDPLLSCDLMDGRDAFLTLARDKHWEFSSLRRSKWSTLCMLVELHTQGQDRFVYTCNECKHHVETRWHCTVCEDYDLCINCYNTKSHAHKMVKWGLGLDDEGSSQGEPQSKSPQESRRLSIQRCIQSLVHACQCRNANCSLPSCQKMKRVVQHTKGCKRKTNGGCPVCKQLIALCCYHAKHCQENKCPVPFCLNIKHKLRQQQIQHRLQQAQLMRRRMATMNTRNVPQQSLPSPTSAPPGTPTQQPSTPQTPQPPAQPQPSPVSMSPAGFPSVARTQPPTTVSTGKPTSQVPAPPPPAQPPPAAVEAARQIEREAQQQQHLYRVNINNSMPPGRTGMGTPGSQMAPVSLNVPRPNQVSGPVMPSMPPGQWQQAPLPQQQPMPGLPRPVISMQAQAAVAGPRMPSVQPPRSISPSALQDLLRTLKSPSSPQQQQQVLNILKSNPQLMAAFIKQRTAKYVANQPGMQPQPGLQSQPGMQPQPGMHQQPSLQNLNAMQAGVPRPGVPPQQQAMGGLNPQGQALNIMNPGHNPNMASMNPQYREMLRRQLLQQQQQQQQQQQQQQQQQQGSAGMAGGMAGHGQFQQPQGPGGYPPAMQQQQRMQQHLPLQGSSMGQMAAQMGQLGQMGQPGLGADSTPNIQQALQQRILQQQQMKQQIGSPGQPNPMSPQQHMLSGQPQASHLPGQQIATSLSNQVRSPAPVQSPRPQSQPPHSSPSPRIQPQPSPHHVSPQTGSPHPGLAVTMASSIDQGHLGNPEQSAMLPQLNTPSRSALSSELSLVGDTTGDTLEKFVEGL", "experiment": "CBP TR-FRET binding assay;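 note: displacement of a biotinylated small-molecule ligand from purified recombinant CBP read by TR-FRET, DMSO-only wells as control, IC50 from nonlinear curve fit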", "conditions": "His/Flag tagged CBP 4 nM, biotin-ligand 60 nM; read-out: CBP HTRF IC50", "units": {"IC50": "nM"}, "protocol": "IC50 Measurements for Inhibitors Using CBP TR FRET Binding Assay\nHis/Flag epitope tagged CBP was cloned, expressed, and purified to homogeneity. CBP binding and inhibition was assessed by monitoring the engagement of a biotinylated small molecule compound with the target using the TR-FRET assay technology (Perkin-Elmer). Specifically, in a 384 well ProxiPlate CBP (4 nM final) was combined with biotin-ligand (60 nM final) in 50 mM HEPES (pH 7.5), 50 mM NaCl, 1 mM TCEP, 0.01% (w/v) BSA, and 0.008% (w/v) Brij-35 either in the presence of DMSO (final 0.2% DMSO) or compound dilution series in DMSO. […] After twenty minutes of equilibration, the plates were read on an Envision instrument and IC50S calculated using a four parameter non-linear curve fit."}
{"molecule": "CNC(=O)N1Cc2cc(N3CCCc4cc(-c5cnn(C)c5)c(C(F)F)cc43)ccc2OC(C)C1", "note": "(centres unmarked) [Example 114, 7-(7-(difluoromethyl)-6-(1-methyl-1H-pyrazol-4-yl)-3,4-dihydroquinolin-1(2H)-yl)-N,2-dimethyl-2,3-dihydrobenzo[f][1,4]oxazepine-4(5H)-carboxamide]", "IC50": 51}
{"molecule": "CCn1c(=O)n(C)c2cc(N3CCCc4cc(-c5cnn(C)c5)c(C(F)F)cc43)ccc21", "note": "[Example 31, 5-[7-(difluoromethyl)-6-(1-methylpyrazol-4-yl)-3,4-dihydro-2H-quinolin-1-yl]-1-ethyl-3-methyl-benzimidazol-2-one]", "IC50": 172}
{"molecule": "CNC(=O)c1ccc2cncc(N3CCCc4cc(-c5cnn(C)c5)c(C(F)F)cc43)c2c1", "note": "[Example 119, 4-(7-(difluoromethyl)-6-(1-methyl-1H-pyrazol-4-yl)-3,4-dihydroquinolin-1(2H)-yl)-N-methylisoquinoline-6-carboxamide]", "IC50": 34}
{"molecule": "CNC(=O)N1CCOc2ccc(-c3nc(N)cc4cnccc34)cc2C1", "note": "[Example 2]", "IC50": 321}
{"molecule": "CNC(=O)C1CCc2c(c(N3CCCc4cc(-c5cnn(C)c5)c(C(F)F)cc43)nn2C2CCOCC2)C1", "note": "(centres unmarked) [Example 126, 3-(7-(difluoromethyl)-6-(1-methyl-1H-pyrazol-4-yl)-3,4-dihydroquinolin-1(2H)-yl)-N-methyl-1-(tetrahydro-2H-pyran-4-yl)-4,5,6,7-tetrahydro-1H-indazole-5-carboxamide]", "IC50": 184}
{"molecule": "CC(=O)N1CCCc2cc(N3CCCc4cc(-c5cnn(C)c5)c(C(F)F)cc43)ccc21", "note": "[Example 87, 1-[6-[7-(difluoromethyl)-6-(1-methylpyrazol-4-yl)-3,4-dihydro-2H-quinolin-1-yl]-3,4-dihydro-2H-quinolin-1-yl]ethanone]", "IC50": 429}
{"molecule": "CNC(=O)c1cn(C)nc1C(=O)Nc1cccc2cc(-c3cnn(C)c3)ncc12", "note": "[Example 124, N^4,1-dimethyl-N^3-(3-(1-methyl-1H-pyrazol-4-yl)isoquinolin-8-yl)-1H-pyrazole-3,4-dicarboxamide]", "IC50": 14}
{"molecule": "CNC(=O)c1ccc2c(c1)c(N1CCCc3cc(-c4cnn(C)c4)ccc31)nn2C1CCOCC1", "note": "[Example 84]", "IC50": 87}
{"molecule": "CNC(=O)c1cnc2ccc(N3CCCc4cc(-c5cnn(C)c5)c(C(F)F)cc43)nn12", "note": "[Example 72, 6-(7-(difluoromethyl)-6-(1-methyl-1H-pyrazol-4-yl)-3,4-dihydroquinolin-1(2H)-yl)-N-methylimidazo[1,2-b]pyridazine-3-carboxamide]", "IC50": 110}
{"molecule": "CN1C(=O)C(C)(C)c2ccc(N3CCCc4cc(-c5cnn(C)c5)c(C(F)F)cc43)cc21", "note": "[Example 20]", "IC50": 1750}
{"molecule": "CNC(=O)c1n[nH]c2ccc(N3CCCc4cc(-c5cnn(C)c5)c(C(F)F)cc43)nc12", "note": "[Example 71]", "IC50": 187}
{"molecule": "CNC(=O)N1CCOc2ccc(-c3c(C)ccc4c3cnn4C)cc2C1", "note": "[Example 3, 7-(1,5-dimethylindazol-4-yl)-N-methyl-3,5-dihydro-2H-1,4-benzoxazepine-4-carboxamide]", "IC50": 57}
{"molecule": "CN1C(=O)CCc2ccc(N3CCCc4cc(-c5cnn(C)c5)c(C(F)F)cc43)cc21", "note": "[Example 19]", "IC50": 33}
{"molecule": "Cn1cc(-c2cc3c(cc2C(F)F)N(c2ccc4c(c2)sc(=O)n4C)CCC3)cn1", "note": "[Example 22]", "IC50": 1690}
{"molecule": "CNC(=O)c1cccc2oc(-c3cccc4cc(-c5cnn(C)c5)ncc34)nc12", "note": "[Example 121, N-methyl-2-(3-(1-methyl-1H-pyrazol-4-yl)isoquinolin-8-yl)benzo[d]oxazole-4-carboxamide]", "IC50": 274}
{"molecule": "CN1Cc2c(cccc2N2CCCc3cc(-c4cnn(C)c4)c(C(F)F)cc32)NC1=O", "note": "[Example 116, 5-(7-(difluoromethyl)-6-(1-methyl-1H-pyrazol-4-yl)-3,4-dihydroquinolin-1(2H)-yl)-3-methyl-3,4-dihydroquinazolin-2(1H)-one]", "IC50": 26}
{"molecule": "C[C@H]1Nc2c(cccc2N2CCCc3cc(-c4cnn(C)c4)ccc32)NC1=O", "note": "[Example 82, (R)-3-methyl-5-(6-(1-methyl-1H-pyrazol-4-yl)-3,4-dihydroquinolin-1(2H)-yl)-3,4-dihydroquinoxalin-2(1H)-one]", "IC50": 325}
{"molecule": "CNC(=O)c1c[nH]c2cnc(N3CCCc4cc(-c5cnn(C)c5)c(C(F)F)cc43)nc12", "note": "[Example 70]", "IC50": 18}
{"molecule": "Cn1cc(-c2cc3c(cc2C(F)F)N(c2cc(N4CCCCC4)c4c(c2)n(C)c(=O)n4C)CCC3)cn1", "note": "[Example 44]", "IC50": 26}
{"molecule": "CNC(=O)c1ccc2nccc(N3CCCc4cc(-c5cnn(C)c5)c(C(F)F)cc43)c2c1", "note": "[Example 27, 4-[7-(difluoromethyl)-6-(1-methylpyrazol-4-yl)-3,4-dihydro-2H-quinolin-1-yl]-N-methyl-quinoline-6-carboxamide]", "IC50": 34}
{"molecule": "CNC(=O)N1CCOc2ccc(-c3c(F)ccc4[nH]ccc34)cc2C1", "note": "[Example 12]", "IC50": 59}
{"molecule": "CNC(=O)c1c[nH]c2ccc(N3CCCc4cc(-c5cnn(C)c5)ccc43)cc12", "note": "[Example 53]", "IC50": 48}
{"molecule": "Cn1cc(-c2cc3c(cc2C(F)F)N(c2ccc4oc(=O)n(C)c4c2)CCC3)cn1", "note": "[Example 91, 5-[7-(difluoromethyl)-6-(1-methylpyrazol-4-yl)-3,4-dihydro-2H-quinolin-1-yl]-3-methyl-1,3-benzoxazol-2-one]", "IC50": 481}
{"molecule": "Cn1cc(-c2cc3c(cc2C(F)F)N(c2cc4c(cn2)n(C)c(=O)n4C)CCC3)cn1", "note": "[Example 24]", "IC50": 106}
{"molecule": "CN1C(=O)C(=O)c2ccc(N3CCCc4cc(-c5cnn(C)c5)c(C(F)F)cc43)cc21", "note": "[Example 89, 6-[7-(difluoromethyl)-6-(1-methylpyrazol-4-yl)-3,4-dihydro-2H-quinolin-1-yl]-1-methyl-indoline-2,3-dione]", "IC50": 78}
{"molecule": "Cn1cc(-c2cc3c(cc2C(F)F)N(c2cnc4[nH]cc(-c5cnn(C)c5)c4n2)CCC3)cn1", "note": "[Example 74, 7-(difluoromethyl)-6-(1-methyl-1H-pyrazol-4-yl)-1-(7-(1-methyl-1H-pyrazol-4-yl)-5H-pyrrolo[2,3-b]pyrazin-2-yl)-1,2,3,4-tetrahydroquinoline]", "IC50": 108}
{"molecule": "C#Cc1cc2c(cc1N1CCCc3cc(-c4cnn(C)c4)c(C(F)F)cc31)n(C)c(=O)n2C", "note": "[Example 102, 5-(7-(difluoromethyl)-6-(1-methyl-1H-pyrazol-4-yl)-3,4-dihydroquinolin-1(2H)-yl)-6-ethynyl-1,3-dimethyl-1H-benzo[d]imidazol-2(3H)-one]", "IC50": 21}
{"molecule": "CNC(=O)N1CCOc2ccc(-c3cccc4cn[nH]c34)cc2C1", "note": "[Example 15]", "IC50": 391}
{"molecule": "CNC(=O)N1CCOc2ccc(-c3cccc4c3cnn4C)cc2C1", "note": "[Example 10]", "IC50": 96}
{"molecule": "CNC(=O)N1CCOc2ccc(-c3nccc4ccccc34)cc2C1", "note": "[Example 1, 7-(isoquinolin-1-yl)-N-methyl-2,3-dihydrobenzo[f][1,4]oxazepine-4(5H)-carboxamide]", "IC50": 187}
{"molecule": "CNC(=O)c1coc2ccc(N3CCCc4cc(-c5cnn(C)c5)c(C(F)F)cc43)cc12", "note": "[Example 73, 5-(7-(difluoromethyl)-6-(1-methyl-1H-pyrazol-4-yl)-3,4-dihydroquinolin-1(2H)-yl)-N-methylbenzofuran-3-carboxamide]", "IC50": 80}
{"molecule": "CNC(=O)c1cn(C)c2ccc(-c3cccc4cc(-c5cnn(C)c5)ncc34)cc12", "note": "[Example 49]", "IC50": 22}
